CC1=CC(=O)[N-]S(=O)(=O)O1.[K+]
Conditions	solubility (mole fraction)
in ethanol, 277.1 K	0.000123
in ethanol, 282.39 K	0.000154
in ethanol, 287.47 K	0.000176
in ethanol, 292.3 K	0.0002
in ethanol, 297.55 K	0.000226
in ethanol, 302.65 K	0.000259
in ethanol, 307.9 K	0.0003
in ethanol, 312.93 K	0.000396
in ethanol, 317.87 K	0.000496
in ethanol, 322.9 K	0.000634
in methanol, 277.7 K	0.000156
in methanol, 281.79 K	0.000173
in methanol, 286.1 K	0.000189
in methanol, 290.39 K	0.000205
in methanol, 294.2 K	0.000222
in methanol, 298.51 K	0.000238
in methanol, 302.21 K	0.000256
in methanol, 307.8 K	0.000288
in methanol, 311.39 K	0.000313
in methanol, 315.47 K	0.000341
in methanol, 319.3 K	0.000371
in methanol, 322.8 K	0.000401
in water, 277.98 K	0.000151
in water, 281.23 K	0.000167
in water, 284.73 K	0.000186
in water, 288.35 K	0.000207
in water, 294.9 K	0.000249
in water, 298.02 K	0.000271
in water, 301.03 K	0.000292
in water, 304.01 K	0.000314
in water, 307.07 K	0.000338
in water, 310.24 K	0.000363
in water, 313.53 K	0.00039
in water, 317.3 K	0.000419
in water, 322.3 K	0.000474

From BigSolDB 2.1
